In patent US20220281848A1, “PYRAZOLE-SUBSTITUTED PYRROLIDINONES AS HERBICIDES” (FMC Corporation, priority 2019, published 2022):

Key:
Assay type in all cases: in vivo
Settings in all cases: after 13 d
[1] = system: velvetleaf (Abutilon theophrasti, ABUTH); experiment: Test A post-emergence, velvetleaf
Procedure, shortened: (§1)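 Foliar application to 8-day-old seedlings at 15.625, 62.5 or 250 g/ha; phytotoxicity scored 0–100 after 13 d.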

corn (Zea mays, ZEAMX) [2] = experiment: Test A post-emergence, corn
Procedure, shortened: as §1

[3] = system: giant foxtail (Setaria faberi, SETFA); experiment: Test A post-emergence, giant foxtail
Procedure, shortened: as §1

[4] = system: ivy-leaved morning glory (Ipomoea hederacea, IPOHE); experiment: Test A post-emergence, ivy-leaved morning glory
Procedure, shortened: as §1

corn (Zea mays, ZEAMX) [5] = experiment: Test A pre-emergence, corn
Procedure, shortened: (§2)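 Damage rated 0–100 (100 = total) 13 d after spraying. Application was one day post-sowing at 15.625, 62.5 or 250 g/ha, formulated in 50:50 acetone/water plus 0.5% Tween 20. Pots held in glasshouse at 24/16 °C day/night, 14 h light, 65% humidity, watered twice daily.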

[6] = system: velvetleaf (Abutilon theophrasti, ABUTH); experiment: Test A pre-emergence, velvetleaf
Procedure, shortened: as §2

[7] = system: ivy-leaved morning glory (Ipomoea hederacea, IPOHE); experiment: Test A pre-emergence, ivy-leaved morning glory
Procedure, shortened: as §2

[8] = system: giant foxtail (Setaria faberi, SETFA); experiment: Test A pre-emergence, giant foxtail
Procedure, shortened: as §2

[9] = system: barnyardgrass (Echinochloa crus-galli, ECHCG); experiment: Test A pre-emergence, barnyardgrass
Procedure, shortened: as §2

[10] = system: redroot pigweed (Amaranthus retroflexus, AMARE); experiment: Test A post-emergence, redroot pigweed
Procedure, shortened: as §1

[11] = system: redroot pigweed (Amaranthus retroflexus, AMARE); experiment: Test A pre-emergence, redroot pigweed
Procedure, shortened: as §2

[12] = system: barnyardgrass (Echinochloa crus-galli, ECHCG); experiment: Test A post-emergence, barnyardgrass
Procedure, shortened: as §1

CCn1nc(C2CN(C)C(=O)C2C(=O)Nc2cccc(F)c2F)c2cccc(F)c21 (stereo not drawn) [Compound 15]
0: damage to plant (100=total damage; 0=no damage) ABUTH ([1]; Post-Emergence at 15.625 g/ha) | damage to plant (100=total damage; 0=no damage) ABUTH ([1]; Post-Emergence at 62.5 g/ha) | damage to plant (100=total damage; 0=no damage) ABUTH ([1]; Post-Emergence at 250 g/ha) | damage to plant (100=total damage; 0=no damage) ZEAMX (corn (Zea mays, ZEAMX) [2]; Post-Emergence at 15.625 g/ha) | damage to plant (100=total damage; 0=no damage) ZEAMX (corn (Zea mays, ZEAMX) [2]; Post-Emergence at 62.5 g/ha) | damage to plant (100=total damage; 0=no damage) ZEAMX (corn (Zea mays, ZEAMX) [2]; Post-Emergence at 250 g/ha) | damage to plant (100=total damage; 0=no damage) SETFA ([3]; Post-Emergence at 15.625 g/ha) | damage to plant (100=total damage; 0=no damage) SETFA ([3]; Post-Emergence at 62.5 g/ha) | damage to plant (100=total damage; 0=no damage) SETFA ([3]; Post-Emergence at 250 g/ha) | damage to plant (100=total damage; 0=no damage) IPOHE ([4]; Post-Emergence at 15.625 g/ha) | damage to plant (100=total damage; 0=no damage) IPOHE ([4]; Post-Emergence at 62.5 g/ha) | damage to plant (100=total damage; 0=no damage) IPOHE ([4]; Post-Emergence at 250 g/ha) | damage to plant (100=total damage; 0=no damage) ZEAMX (corn (Zea mays, ZEAMX) [5]; Pre-Emergence at 62.5 g/ha) | damage to plant (100=total damage; 0=no damage) ZEAMX (corn (Zea mays, ZEAMX) [5]; Pre-Emergence at 250 g/ha) | damage to plant (100=total damage; 0=no damage) ABUTH ([6]; Pre-Emergence at 62.5 g/ha) | damage to plant (100=total damage; 0=no damage) ABUTH ([6]; Pre-Emergence at 250 g/ha) | damage to plant (100=total damage; 0=no damage) IPOHE ([7]; Pre-Emergence at 62.5 g/ha) | damage to plant (100=total damage; 0=no damage) IPOHE ([7]; Pre-Emergence at 250 g/ha) | damage to plant (100=total damage; 0=no damage) SETFA ([8]; Pre-Emergence at 62.5 g/ha) | damage to plant (100=total damage; 0=no damage) SETFA ([8]; Pre-Emergence at 250 g/ha) | damage to plant (100=total damage; 0=no damage) ECHCG ([9]; Pre-Emergence at 62.5 g/ha) | damage to plant (100=total damage; 0=no damage) ECHCG ([9]; Pre-Emergence at 250 g/ha) | damage to plant (100=total damage; 0=no damage) AMARE ([10]; Post-Emergence at 15.625 g/ha) | damage to plant (100=total damage; 0=no damage) AMARE ([10]; Post-Emergence at 62.5 g/ha) | damage to plant (100=total damage; 0=no damage) AMARE ([10]; Post-Emergence at 250 g/ha) | damage to plant (100=total damage; 0=no damage) AMARE ([11]; Pre-Emergence at 62.5 g/ha) | damage to plant (100=total damage; 0=no damage) AMARE ([11]; Pre-Emergence at 250 g/ha) | damage to plant (100=total damage; 0=no damage) ECHCG ([12]; Post-Emergence at 15.625 g/ha) | damage to plant (100=total damage; 0=no damage) ECHCG ([12]; Post-Emergence at 62.5 g/ha) | damage to plant (100=total damage; 0=no damage) ECHCG ([12]; Post-Emergence at 250 g/ha)
